Results: publication PMC12114839 (2025)

Test system: c-MYC G4 DNA (Pu27) (DNA, G4) TGAGGGTGGGTAGGGTGGGTAA
Assay: UV-Vis absorbance titration
Settings: 100 mM K+ (KCl); 10 mM Tris-HCl pH 7.4, 1 mM EDTA, 25 °C; 5 µM DNA, 0-20 µM EGCG; no Kd determined

- binding: yes
Structure (SMILES): O=C(O[C@@H]1Cc2c(O)cc(O)cc2O[C@@H]1c1cc(O)c(O)c(O)c1)c1cc(O)c(O)c(O)c1
